Assay results as given in ChEMBL document CHEMBL2203255, “Nerve growth factor-potentiating benzofuran derivatives from the medicinal fungus Phellinus ribis” (J Nat Prod, 2012).
Activity calls are given as the source filed them. No cut-off for these calls is given here.

Each compound was assayed on PC-12 (assay: Neuritogenic activity in rat PC12 cells assessed as potentiation of NGF-induced neurite outgrowth at 1 to 30 uM after 4 days by phase-contrast microscopy in presence of 1 ng/ml NGF).
Assay type: functional, cell-based

| SMILES | Activity |
| --- | --- |
| CO[C@@H]1C(=O)c2c(oc3ccccc23)[C@H](O)[C@H]1O | Active |
| CO[C@@H]1[C@H](OC)C(=O)c2c(oc3ccccc23)[C@@H]1O | Active |
| CO[C@H]1[C@H](O)c2oc3ccccc3c2C(=O)[C@@H]1OC | Active |
| CO[C@H]1[C@H](OC)C(=O)c2c(oc3c(O)cccc23)[C@@H]1O | Active |
